The results in this text go back to patent US7449545B2, “Antimicrobial bolisin peptides” (IPF Pharmaceuticals GmbH, priority 2001, dated 2008).

Ends that are not written are not given here.

Holding throughout (assay type): cell-based
Experiment [1] deals with Enterococcus faecalis ATCC 51299 (vancomycin-resistant). To be noted: ATCC 51299, 2 h. The source says:
(§1) The bolisin analogues of the present invention were examined for their suitability as antibiotic therapeutical agents by means of various biological tests. Thus, the chemically synthesized peptides were examined for their antimicrobial effectiveness against three Gram-positive and three Gram-negative bacterial strains as well as against a yeast.
(§2) The following microorganisms were used: • Gram-positive: Staphylococcus aureus ATCC 25923 • Enterococcus faecalis ATCC 51299 (vancomycin-resistant) • Streptococcus pneumoniae DSM 11865 (penicillin-resistant) • Gram-negative: Escherichia coli ATCC 25922 • Pseudomonas aeruginosa ATCC 9027 • Klebsiella pneumoniae ATCC 10031 • Yeast: Candida albicans ATCC 10231
(§3) The antibiotic activity of bolisin analogues was examined by determining the minimum inhibition concentration. […] This method allows to obtain a quantitative result about the antimicrobial potency of the peptides. These examinations were performed by analogy with the recommendations (M7-A3) edited by the NCCLS (National Committee for Clinical Laboratory Standards) by applying a dilution test in a liquid medium using chemically synthesized peptides (peptide sequences according to claims 1 to 3). Mueller Hinton Broth was used as the test medium according to the NCCLS recommendations unless indicated otherwise. […] The minimum inhibition concentrations are stated in [μg/ml].
(§4) A complete growth inhibition could not be achieved in this case. For determining the minimum inhibition concentration, the following microorganisms were used: • 1. Staphylococcus aureus ATCC 25923 • 2. Enterococcus faecalis ATCC 51299 (vancomycin-resistant) • 3. Streptococcus pneumoniae DSM 11865 (penicillin-resistant) • 4. Escherichia coli ATCC 25922 • 5. Pseudomonas aeruginosa ATCC 9027 • 6. Klebsiella pneumoniae ATCC 10031 • 7. Candida albicans ATCC 10231

The subject of experiment [2] is Escherichia coli ATCC 25922. To be noted: ATCC 25922, 2 h.
Excerpt: as §1, §2, §3, §4

Experiment [3] relates to Klebsiella pneumoniae ATCC 10031. To be noted: ATCC 10031, 2 h.
Excerpt: as §1, §2, §3, §4

The test system of experiment [4] is Staphylococcus aureus ATCC 25923. To be noted: ATCC 25923, 2 h.
Excerpt: as §1, §2, §3, §4

The subject of experiment [5] is Streptococcus pneumoniae DSM 11865 (penicillin-resistant). The conditions noted are these: DSM 11865, 2 h.
Excerpt: as §1, §2, §3, §4

Experiment [6] concerns Pseudomonas aeruginosa ATCC 9027. The conditions noted are these: ATCC 9027, 2 h.
The subject of experiment [7] is Candida albicans ATCC 10231. The conditions noted are these: for peptide concentration giving 75% inhibition of growth (value in parentheses): Mueller Hinton Broth, complete growth inhibition not achieved; for minimum inhibition concentration: ATCC 10231, 2 h.
Excerpt: as §1, §2, §3, §4

Experiment [8] deals with Pseudomonas aeruginosa ATCC 9027. The conditions noted are these: Mueller Hinton Broth; complete growth inhibition not achieved.
Excerpt: as §1, §2
The antibiotic activity of bolisin analogues was examined by determining the minimum inhibition concentration. The minimum inhibition concentration of an analogue designates the lowest peptide concentration which is required to inhibit the growth of microorganisms completely after an incubation time of 18±2 h. This method allows to obtain a quantitative result about the antimicrobial potency of the peptides. These examinations were performed by analogy with the recommendations (M7-A3) edited by the NCCLS (National Committee for Clinical Laboratory Standards) by applying a dilution test in a liquid medium using chemically synthesized peptides (peptide sequences according to claims 1 to 3). Mueller Hinton Broth was used as the test medium according to the NCCLS recommendations unless indicated otherwise. […] The minimum inhibition concentrations are stated in [μg/ml].
as §4

Regarding “YIRYKIRSARKRRKALK-OH [BOL-17, YIRYKIRSARKRRKALK]”, the minimum inhibition concentration in experiment [1] worked out at 200 µg/mL; in experiment [2], 37.5 µg/mL; in experiment [3] it was 9.375 µg/mL; in experiment [4], 37.5 µg/mL; in experiment [5], 300 µg/mL; in experiment [6], 200 µg/mL.
As to “YIRYKRRSARKRRKALK-OH [BOL-18, YIRYKRRSARKRRKALK]”, the minimum inhibition concentration is over 300 µg/mL in experiment [1]; 18.75 µg/mL in experiment [2]; 37.5 µg/mL in experiment [3]; 18.75 µg/mL in experiment [4]; over 300 µg/mL in experiment [5]; 300 µg/mL in experiment [6].
“YIVYKIRWARKRWKALK-OH [BOL-51, YIVYKIRWARKRWKALK]”: the “peptide concentration giving 75% inhibition of growth (value in parentheses)” value was “(18.75) μg/ml” in experiment [7] and 25 µg/mL in experiment [8]. For the same substance, the minimum inhibition concentration worked out at 25 µg/mL in experiment [1]; 50 µg/mL in experiment [2]; 18.75 µg/mL in experiment [3]; 37.5 µg/mL in experiment [4]; 12.5 µg/mL in experiment [5]; 300 µg/mL in experiment [6].
As to YIVYKIRSADKRSKALK-OH [Bolisin], the minimum inhibition concentration in experiment [7], in experiment [1], in experiment [2], in experiment [3], in experiment [4] and in experiment [5] was over 300 µg/mL throughout. For the same substance, the minimum inhibition concentration in experiment [6] is over 300 µg/mL.
As to “YIVYKIRWAWKRSKALK-OH [BOL-47, YIVYKIRWAWKRSKALK]”, the minimum inhibition concentration in experiment [7] is 18.75 µg/mL; in experiment [1] it was 25 µg/mL; in experiment [2] it was 18.75 µg/mL; in experiment [3], 9.375 µg/mL; in experiment [4], 18.75 µg/mL; in experiment [5], 18.75 µg/mL. Besides, in experiment [8], the “peptide concentration giving 75% inhibition of growth (value in parentheses)” value was “(25) μg/ml”.
Turning to “KYIVYKIRSARKRRKALK-OH [BOL-84, KYIVYKIRSARKRRKALK]”, the minimum inhibition concentration in experiment [7] is 37.5 µg/mL; in experiment [1], over 300 µg/mL; in experiment [2], over 300 µg/mL; in experiment [3], 75 µg/mL; in experiment [4], over 300 µg/mL; in experiment [5], 300 µg/mL. Also, the “peptide concentration giving 75% inhibition of growth (value in parentheses)” value in experiment [8] is on record as “(75) μg/ml”.
Consider “YIVYKIRSARKRWKALK-OH [BOL-46, YIVYKIRSARKRWKALK]”, for which the minimum inhibition concentration was 150 µg/mL in experiment [7]; 200 µg/mL in experiment [1]; 200 µg/mL in experiment [2]; 150 µg/mL in experiment [3]; 300 µg/mL in experiment [4]; 200 µg/mL in experiment [5]. Also, the “peptide concentration giving 75% inhibition of growth (value in parentheses)” value in experiment [8] is reported as “(100) μg/ml”.
On to “YIVRKIRSAWKRWKALK-OH [BOL-79, YIVRKIRSAWKRWKALK]”, for which the minimum inhibition concentration in experiment [7] was 4.7 µg/mL; in experiment [1], over 300 µg/mL; in experiment [2] it was 3.125 µg/mL; in experiment [3] it was 2.35 µg/mL; in experiment [4] it was 9.375 µg/mL; in experiment [5], 300 µg/mL. Moreover, the “peptide concentration giving 75% inhibition of growth (value in parentheses)” value in experiment [8] was “(4.7) μg/ml”.
For the substance “YIVYKIRSARKRWKAL [BOL-68, YIVYKIRSARKRWKAL]”, the minimum inhibition concentration was 200 µg/mL in experiment [7]; 200 µg/mL in experiment [1]; 200 µg/mL in experiment [2]; 300 µg/mL in experiment [3]; 200 µg/mL in experiment [4]; 300 µg/mL in experiment [5]. In experiment [8], the “peptide concentration giving 75% inhibition of growth (value in parentheses)” value is “(200) μg/ml”.
Turning to “YIVYKIRWARKRRKAL [BOL-72, YIVYKIRWARKRRKAL]”, the minimum inhibition concentration in experiment [7] is 18.75 µg/mL; in experiment [1], 25 µg/mL; in experiment [2], 100 µg/mL; in experiment [3], 18.75 µg/mL; in experiment [4] it was 75 µg/mL; in experiment [5], 18.75 µg/mL. In addition, the “peptide concentration giving 75% inhibition of growth (value in parentheses)” value in experiment [8] was “(12.5) μg/ml”.
“YIVRKIRSARKRRKALK-OH [BOL-83, YIVRKIRSARKRRKALK]”: the minimum inhibition concentration in experiment [7] is 300 µg/mL; in experiment [1], over 300 µg/mL; in experiment [2], over 300 µg/mL; in experiment [3], over 300 µg/mL; in experiment [4], over 300 µg/mL; in experiment [5] it was over 300 µg/mL. This substance gave a minimum inhibition concentration in experiment [6] of over 300 µg/mL.
Turning to “YIVYKIRSAKKRKKALK-OH [BOL-56, YIVYKIRSAKKRKKALK]”, the entries for the “peptide concentration giving 75% inhibition of growth (value in parentheses)” value in experiment [7] and in experiment [8] were “(300) μg/ml” and “(200) μg/ml”, respectively. Moreover, the minimum inhibition concentration in experiment [1] was over 300 µg/mL; in experiment [2], over 300 µg/mL; in experiment [3], 300 µg/mL; in experiment [4], over 300 µg/mL; in experiment [5], over 300 µg/mL.
Turning to “YIVWKIRSAWKRWKALK-OH [BOL-82, YIVWKIRSAWKRWKALK]”, the minimum inhibition concentration in experiment [7] turned out to be 9.375 µg/mL; in experiment [1], 75 µg/mL; in experiment [2], 18.75 µg/mL; in experiment [3], 12.5 µg/mL; in experiment [4], 18.75 µg/mL; in experiment [5], 37.5 µg/mL. Besides, in experiment [8], the “peptide concentration giving 75% inhibition of growth (value in parentheses)” value is given as “(9.375) μg/ml”.
For “YIVYKIRWARKRRKALK-OH [BOL-50, YIVYKIRWARKRRKALK]”, the minimum inhibition concentration in experiment [7] was 9.375 µg/mL; in experiment [1] it was 25 µg/mL; in experiment [2], 50 µg/mL; in experiment [3], 9.375 µg/mL; in experiment [4] it was 37.5 µg/mL; in experiment [5], 18.75 µg/mL. In addition, the “peptide concentration giving 75% inhibition of growth (value in parentheses)” value in experiment [8] is reported as “(6.25) μg/ml”.
In the case of “KYIVYKIRWARKRRKALK-OH [BOL-87, KYIVYKIRWARKRRKALK]”, the minimum inhibition concentration was found to be 9.375 µg/mL in experiment [7]; 37.5 µg/mL in experiment [1]; 18.75 µg/mL in experiment [2]; 9.375 µg/mL in experiment [3]; 9.375 µg/mL in experiment [4]; 9.375 µg/mL in experiment [5]. Further, the “peptide concentration giving 75% inhibition of growth (value in parentheses)” value in experiment [8] was “(9.375) μg/ml”.
